Reference: patent US7415306B2, “Transdermal delivery system for anti-emetic medication” (TransPharma Medical Ltd., priority 2002, dated 2008)
Where a name gives a salt, the structure may show the parent alone.

Columns and labels:
[1] = Clinical bioavailability study with granisetron patches and ViaDerm versus oral delivery (plasma levels, irritation); details: human, 1 tablet of 1 mg twice daily, reached only for short time periods, unsteady profile
Protocol: Granisetron HCl patches were applied on the skin of the upper arm and fore arm of healthy adult volunteers. […] Irritation was examined by monitoring edema and erythema as described in Example 6.
The experiment was conducted with six subjects, in a crossover manner. Each subject received four different treatments, i.e. various administration methods at various sites of patch application, with at least six days washout period between treatments.
ViaDerm performance was assessed by a study conducted with twenty healthy, adult volunteers, 10 males and 10 females. […] Each subject received 10 treatments, in a randomized manner such that a given treatment was applied to different subjects and/or in each subject at different sites. • Treatment protocol. The treatment sites were the inner arm and hand. […] Measuring Transdermal Water Loss (TEWL) at a skin site treated with ViaDerm in comparison to an adjacent untreated skin assessed formation of micro-channels. […]

[2] = Clinical patch-size study with granisetron patches and ViaDerm (plasma levels, erythema/edema)
Excerpt: The purpose of the first phase study was to determine patch size per drug dose. The target population for the study was healthy male and female volunteers who signed informed consent and fulfilled the following inclusion criteria: • 1. Are capable of understanding and signing an informed consent • 2. Are between the ages of 18 and 60 years • 3. Are medically stable • 4. Have fair skin color that enable to observe erythema and/or edema. • 5. Have two hands with no obvious marks, bruises, cuts, and abrasions on the back of the hand. • 6. Hemoglobin more than 12 gm % in females and more than 14 gm % in males.
Granisetron HCl patches were applied on the skin of the upper arm and fore arm of healthy adult volunteers. […] Irritation was examined by monitoring edema and erythema as described in Example 6. […]
ViaDerm performance was assessed by a study conducted with twenty healthy, adult volunteers, 10 males and 10 females. […] Measuring Transdermal Water Loss (TEWL) at a skin site treated with ViaDerm in comparison to an adjacent untreated skin assessed formation of micro-channels. Safety of ViaDerm was evaluated by measuring irritation (erythema and edema) at the treatment site using a scale of zero to eight in accordance with Draize irritation index (Table 4). The response to irritation induced by ViaDern was assessed by a Cumulative Irritation Index (Table 5). […]

[3] = Pharmacokinetic study of transdermal drug delivery in rats (granisetron hydrogel patch with or without ViaDerm); format: in vivo, Male Sprague-Dawley rats; details: 3% granisetron HCl hydrogel patch
Protocol: Male Sprague-Dawley rats (400-500 g, Harlan Laboratories Ltd., Jerusalem, Israel) were anesthetized (5 mg/kg ketamine i.p.) and were placed dorsally. Anesthesia was maintained until the end of the transdermal treatment and during blood sampling by injections of 0.1 ml ketamine and Xyalzine (60-80 mg/ml) every 30-40 min. The abdominal skin was shaved and cleaned with isopropyl alcohol. After 30 minutes, the transepidermal water loss was measured in order to verify skin integrity and RF-micro-channeling took place on the abdominal skin of a test group. […] A granisetron patch, made of a solution of 3% granisetron HCl soaked in a hydrogel sheet of 1.4 cm , was then attached to the skin surface for 24 hr in special containers glued to the skin by silicon medical glue. Blood samples were taken from the heart into heparinized tubes. After centrifugation, plasma samples were kept at −20° C. until analyzed for drug levels by HPLC.
The procedure was basically performed according to Kudoh et al, J. Chromatography 660(1994) p. 205. Phosphate buffer (500 μl, pH 7, 67 mM) was mixed with one ml plasma. […] Aliquots (30 μl) from each sample were injected into the HPLC (1050 HP), equipped with a pre-packed C8 column (BDS-Hypersil, UK; C-8 100×3.0 mm, 3 μm), an auto-sampler, and a fluorescence detector (Model 1046A). Granisetron was detected by excitation at 305 nm and emission at 365 nm. […]

Structure (SMILES): CN1C2CCCC1CC(NC(=O)c1nn(C)c3ccccc13)C2 (centres unmarked) [granisetron, granisetron hydrochloride]
- plasma levels of granisetron [1]: above 4 ng/ml
- maximal concentration of granisetron in human plasma versus patch size ([2]; ViaDerm + patches of 2.8, 5.6 and 8.4 cm^2): linearly correlated with the size of patch
- maximal plasma concentration ([2]; human, ViaDerm + granisetron patch (3% drug) covering 5.6 cm^2, applied 24 hours): above 4 ng/ml
- granisetron plasma level (peak) ([3]; rats not treated with ViaDerm, peak at 2.5 hours after application): lower than 50 ng/ml
- granisetron plasma level ([3]; rats pretreated with ViaDerm, reached during first 12 hours, maintained for additional 12 hours): above 200 ng/ml
